Test systems include A498 renal; IGROV1 ovarian; MDA-MB-435; SF-295 CNS; KM12 colon; HL-60(TB) leukemia; HOP-62 NSCLC; EKVX NSCLC; SW-620 colon; A549 NSCLC.
Common to all, as to test: growth of human tumour cells (NCI), 48 h

Molecules are shown by their SMILES. Where “and” joins values, the source holds several entries; their conditions need not be identical. Equal entries are not always repeated.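 How tested: cells in 96-well plates exposed to compound for 48 hours at five concentrations. At the GI50, growth is halved. TGI marks complete inhibition of growth.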

Turning to `CO/N=C(/COc1c(-c2ccccc2)oc2ccccc2c1=O)c1ccc(F)cc1`, the GI50 was 61.2 µM with A498 renal; 22.1 µM in the experiment with IGROV1 ovarian; above 100 µM in the experiment on MDA-MB-435; 41.1 µM in the experiment with SF-295 CNS; above 100 µM in the experiment on KM12 colon; above 100 µM in the experiment with HL-60(TB) leukemia. For the same molecule, the GI50 in the experiment with HOP-62 NSCLC is 27.3 µM; in the experiment with EKVX NSCLC it was above 100 µM; in the experiment on SW-620 colon, above 100 µM; with A549 NSCLC, 57.4 µM. Further, the TGI in the experiment on A498 renal is above 100 µM; in the experiment on IGROV1 ovarian, 90.7 µM; in the experiment with MDA-MB-435, above 100 µM; in the experiment with SF-295 CNS, above 100 µM; in the experiment on KM12 colon, above 100 µM; in the experiment on HL-60(TB) leukemia, above 100 µM. Besides, the TGI is 67.8 µM in the experiment with HOP-62 NSCLC, above 100 µM in the experiment with EKVX NSCLC, above 100 µM in the experiment on SW-620 colon and above 100 µM in the experiment on A549 NSCLC.
For the molecule `COc1cc(-c2n/c(=C\c3c(O)[nH]c4ccccc34)cc3c2=Nc2ccccc2-3)cc(OC)c1OC`, the GI50 is 0.854 µM in the experiment with A498 renal; 2 µM in the experiment with IGROV1 ovarian; 1.68 µM with MDA-MB-435; 0.666 µM with SF-295 CNS; 2.03 µM with KM12 colon; 2.16 µM in the experiment on HL-60(TB) leukemia. Further, the GI50 with HOP-62 NSCLC was 0.536 µM; in the experiment with EKVX NSCLC, above 24.9 µM; in the experiment on SW-620 colon it was 0.449 µM; in the experiment with A549 NSCLC it was 0.675 µM. The TGI with A498 renal was 6.25 µM; in the experiment with IGROV1 ovarian it was above 24.5 µM; with MDA-MB-435 it was 6.48 µM; in the experiment with SF-295 CNS, above 38.4 µM; in the experiment on KM12 colon it was 16.4 µM; in the experiment on HL-60(TB) leukemia, 5.03 µM. The TGI in the experiment on HOP-62 NSCLC, in the experiment on EKVX NSCLC, in the experiment with SW-620 colon and with A549 NSCLC was above 100 µM throughout.
In the case of `O=[N+]([O-])c1ccc(N=Nc2c(O)[nH]c3ccccc23)cc1`, the TGI is 39.5 µM in the experiment with A498 renal; 41.4 µM in the experiment on IGROV1 ovarian; above 100 µM with MDA-MB-435; 48.7 µM in the experiment on SF-295 CNS; above 100 µM in the experiment with KM12 colon; above 77.8 µM in the experiment on HL-60(TB) leukemia. In addition, the TGI was 34 µM in the experiment on HOP-62 NSCLC, above 72.1 µM in the experiment on EKVX NSCLC, above 100 µM with SW-620 colon and above 100 µM in the experiment with A549 NSCLC.
`Cc1cc2nc3c4cccc(O)c4n(CCN(C)C)c3nc2cc1C`: the GI50 was 2.09 µM in the experiment with A498 renal; 1.32 µM with IGROV1 ovarian; 1.65 µM in the experiment with MDA-MB-435; 3.58 µM in the experiment on SF-295 CNS; 1.65 µM with KM12 colon; 1.57 µM with HL-60(TB) leukemia. Besides, the GI50 with HOP-62 NSCLC was 1.88 µM; in the experiment with EKVX NSCLC, 2.89 µM; with SW-620 colon, 1.53 µM; in the experiment with A549 NSCLC, 1.41 µM. Further, the TGI in the experiment on A498 renal was found to be 9.08 µM; in the experiment on IGROV1 ovarian, 10.8 µM; in the experiment with MDA-MB-435 it was 3.12 µM; in the experiment on SF-295 CNS, 14 µM; in the experiment with KM12 colon, 4.17 µM; in the experiment on HL-60(TB) leukemia, 4.13 µM. The TGI with HOP-62 NSCLC came to 7.53 µM; in the experiment on EKVX NSCLC it was 17.7 µM; with SW-620 colon it was 8.08 µM; with A549 NSCLC, 12.5 µM.
In the case of `Cc1cn2c(=O)n(c1=O)Cc1ccccc1C2`, the GI50 in the experiment with A498 renal is 35.1 µM; with IGROV1 ovarian, 41.7 µM; with MDA-MB-435, above 100 µM; in the experiment on SF-295 CNS, above 100 µM; in the experiment with KM12 colon, above 100 µM; in the experiment with HL-60(TB) leukemia it was above 100 µM. For the same molecule, the GI50 in the experiment on HOP-62 NSCLC, in the experiment with EKVX NSCLC, with SW-620 colon and in the experiment with A549 NSCLC was above 100 µM each time. Besides, the TGI in the experiment with A498 renal, with IGROV1 ovarian, in the experiment with MDA-MB-435, in the experiment on SF-295 CNS, in the experiment on KM12 colon and in the experiment with HL-60(TB) leukemia was above 100 µM in each case. For the same molecule, the TGI with HOP-62 NSCLC, in the experiment with EKVX NSCLC, in the experiment with SW-620 colon and with A549 NSCLC was above 100 µM in each case.
`Oc1ccc(CN(Cc2ccc(C(F)(F)F)cc2)Cc2ccc(O)c3ncccc23)c2cccnc12`: the GI50 with A498 renal is 0.0409 µM; in the experiment with IGROV1 ovarian it was 0.0584 µM; with MDA-MB-435, 0.0214 µM; in the experiment on SF-295 CNS, 0.0182 µM; in the experiment on KM12 colon, 0.0415 µM; in the experiment with HL-60(TB) leukemia, 0.0239 µM. For the same molecule, the GI50 in the experiment with HOP-62 NSCLC was 0.0319 µM; in the experiment with EKVX NSCLC it was 0.0482 µM; in the experiment with SW-620 colon it was 0.0251 µM; in the experiment on A549 NSCLC, 0.0349 µM. The TGI in the experiment on A498 renal is 97.5 µM; in the experiment with IGROV1 ovarian, above 100 µM; in the experiment on MDA-MB-435 it was above 100 µM; with SF-295 CNS, above 100 µM; in the experiment on KM12 colon, above 100 µM; in the experiment with HOP-62 NSCLC, above 34.6 µM. Also, the TGI in the experiment with EKVX NSCLC, with SW-620 colon and in the experiment on A549 NSCLC was above 100 µM each time.
As for `CO/C(=N\N=C\c1cccc(C(F)(F)F)c1)c1ccncc1`, the TGI in the experiment on A498 renal was 42.8 µM; with IGROV1 ovarian, 79.3 µM; in the experiment with MDA-MB-435 it was 6.17 µM and 25.5 µM; with KM12 colon, above 100 µM; in the experiment with HL-60(TB) leukemia it was 7.77 µM and 18 µM; in the experiment with HOP-62 NSCLC, above 100 µM. The TGI in the experiment on EKVX NSCLC is 77.3 µM; in the experiment with SW-620 colon it was above 100 µM; in the experiment on A549 NSCLC it was above 100 µM. Besides, the GI50 in the experiment on MDA-MB-435 is 3.33 µM; in the experiment with SF-295 CNS, 7.59 µM; in the experiment on HL-60(TB) leukemia it was 2.45 µM; in the experiment on HOP-62 NSCLC it was 13.2 µM; in the experiment with A549 NSCLC, 15.5 µM.
On to `COc1ccc(-n2c(C)nc3c(c(C)nn3-c3ccccc3)c2=O)cc1`, for which the GI50 was 0.0264 µM with A498 renal; 0.0701 µM in the experiment with IGROV1 ovarian; 0.0305 µM in the experiment with MDA-MB-435; 0.0594 µM in the experiment on SF-295 CNS; 0.0532 µM in the experiment with KM12 colon; 0.0353 µM in the experiment with HL-60(TB) leukemia. For the same molecule, the GI50 in the experiment on HOP-62 NSCLC was 0.0789 µM; with EKVX NSCLC it was 0.144 µM; in the experiment on SW-620 colon, 0.0415 µM; in the experiment with A549 NSCLC, 0.107 µM. Also, the TGI in the experiment with A498 renal was 0.0843 µM; in the experiment with IGROV1 ovarian, above 100 µM; in the experiment on MDA-MB-435, 0.116 µM; in the experiment with SF-295 CNS, above 100 µM; in the experiment on KM12 colon, above 100 µM; with HL-60(TB) leukemia, 0.22 µM. The TGI in the experiment on HOP-62 NSCLC, in the experiment with EKVX NSCLC, with SW-620 colon and with A549 NSCLC was above 100 µM in each case.

The values above are taken from PubChem BioAssay (NCI).
